Twelve molecules from patent publication US10758534B2 (Vertex Pharmaceuticals Incorporated, priority 2014, dated 2020) can be followed below.

Like-named read-outs stand apart in the source and are kept apart here.

This assay deals with T1, F508del (Homo sapiens, UniProt P13569, DEL508-508).
T1 construct: expressed in transfected cells
In words: Protocol 2: FRET membrane potential optical assay (VIPR), identification of correction compounds. It counts as cell-based. The method, boiled down: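 FRET read-out (CC2-DMPE donor, DiSBAC2(3) voltage-sensitive acceptor) of membrane depolarization on VIPR II. Corrector candidates incubated 16 hrs at 37° C. with NIH3T3 cells expressing F508del; temperature correction at 27° C. as positive control; stimulation by 10 μM forskolin, 20 μM genistein, chloride-free gluconate bath.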

Setting [1] is: Table 3, compounds of Table 1 as modulators of CFTR activity, protocol not stated.
Setting [2] is: F508del CFTR modulator activity, compounds of Table 1, read-out: EC30.

T1 sequence (P13569 with tags, fused parts or gaps DEL508-508): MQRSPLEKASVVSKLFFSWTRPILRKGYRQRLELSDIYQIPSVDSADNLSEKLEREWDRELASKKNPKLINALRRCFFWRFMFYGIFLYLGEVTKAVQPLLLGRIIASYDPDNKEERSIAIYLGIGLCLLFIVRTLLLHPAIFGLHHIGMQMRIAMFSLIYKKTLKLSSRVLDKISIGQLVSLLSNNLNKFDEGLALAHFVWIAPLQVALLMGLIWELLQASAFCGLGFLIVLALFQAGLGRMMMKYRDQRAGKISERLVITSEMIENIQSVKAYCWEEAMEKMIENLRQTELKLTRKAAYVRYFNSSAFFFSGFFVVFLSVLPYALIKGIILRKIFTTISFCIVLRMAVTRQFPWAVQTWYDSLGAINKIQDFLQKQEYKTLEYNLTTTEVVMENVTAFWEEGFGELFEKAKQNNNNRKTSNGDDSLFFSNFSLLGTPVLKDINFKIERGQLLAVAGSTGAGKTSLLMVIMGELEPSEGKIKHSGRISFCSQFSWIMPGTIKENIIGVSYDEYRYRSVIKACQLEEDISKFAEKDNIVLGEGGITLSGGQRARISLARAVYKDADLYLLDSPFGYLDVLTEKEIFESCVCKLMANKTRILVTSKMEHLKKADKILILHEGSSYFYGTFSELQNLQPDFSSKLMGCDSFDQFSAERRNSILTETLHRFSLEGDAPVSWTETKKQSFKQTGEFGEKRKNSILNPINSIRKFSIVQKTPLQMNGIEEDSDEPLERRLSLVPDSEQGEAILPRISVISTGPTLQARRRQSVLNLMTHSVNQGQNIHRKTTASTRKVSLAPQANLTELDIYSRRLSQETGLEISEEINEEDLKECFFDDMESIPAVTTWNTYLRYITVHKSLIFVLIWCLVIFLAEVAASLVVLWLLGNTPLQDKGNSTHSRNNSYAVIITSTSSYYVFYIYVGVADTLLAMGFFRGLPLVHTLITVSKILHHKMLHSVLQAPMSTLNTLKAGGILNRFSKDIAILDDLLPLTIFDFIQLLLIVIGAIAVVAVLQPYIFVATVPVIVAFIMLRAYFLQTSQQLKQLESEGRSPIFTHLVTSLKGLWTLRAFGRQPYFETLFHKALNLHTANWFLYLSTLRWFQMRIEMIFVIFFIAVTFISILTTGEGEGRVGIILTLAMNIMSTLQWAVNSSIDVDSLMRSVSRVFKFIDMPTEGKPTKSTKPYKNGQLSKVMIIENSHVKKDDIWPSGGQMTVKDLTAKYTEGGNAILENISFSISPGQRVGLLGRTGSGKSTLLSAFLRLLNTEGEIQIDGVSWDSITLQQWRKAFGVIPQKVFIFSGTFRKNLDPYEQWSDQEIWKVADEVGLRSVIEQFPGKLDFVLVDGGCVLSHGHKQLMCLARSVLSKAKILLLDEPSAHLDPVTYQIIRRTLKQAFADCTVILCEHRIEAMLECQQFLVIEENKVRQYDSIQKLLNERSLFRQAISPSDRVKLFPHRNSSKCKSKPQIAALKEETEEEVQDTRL

As for `Cc1cc(C)c(Oc2nc(-c3cnc(C(C)C)nc3)ccc2C(=O)NS(=O)(=O)c2cccc(N)n2)c(C)c1` [Compound 64, N-[(6-amino-2-pyridyl)sulfonyl]-6-(2-isopropylpyrimidin-5-yl)-2-(2,4,6-trimethylphenoxy)pyridine-3-carboxamide], under setting [1], the EC30 result is “++ (“++” means between 3 uM and 10 uM)”.

For `CC(C)Oc1ccc(-c2ccc(C(=O)NS(=O)(=O)c3cccc(N)n3)c(N3CCC4(CCC4)CC3)n2)cn1` [Compound 733, N-[(6-amino-2-pyridyl)sulfonyl]-2-(7-azaspiro[3.5]nonan-7-yl)-6-(6-isopropoxy-3-pyridyl)pyridine-3-carboxamide], the EC30 entry under setting [1] is “+++ (“+++” means <3 uM)”.

Take `CC1CN(c2ncccc2C(=O)NS(=O)(=O)c2cccc(N3CCC(Cc4ccccc4)CC3)n2)C(C)(C)C1` (stereo not drawn) [Compound 2107, N—[[6-(4-benzyl-1-piperidyl)-2-pyridyl]sulfonyl]-2-(2,2,4-trimethylpyrrolidin-1-yl)pyridine-3-carboxamide]: the concentration for an effect of 30% (EC30) under setting [2] was under 3 µM.

Regarding `COc1ccc(CNc2cccc(S(=O)(=O)NC(=O)c3cccnc3N3CC(C)CC3(C)C)n2)cc1OC` (stereo not drawn) [Compound 2662, N—[[6-[(3,4-dimethoxyphenyl)methylamino]-2-pyridyl]sulfonyl]-2-(2,2,4-trimethylpyrrolidin-1-yl)pyridine-3-carboxamide], the EC30 under setting [2] fell in the range of 3 to 10 µM.

In the case of `Cc1cc(C)c(Oc2nc(-c3cccc(C)c3O)ccc2C(=O)NS(=O)(=O)c2cccc(N)n2)c(C)c1` [Compound 450, N-[(6-amino-2-pyridyl)sulfonyl]-6-(2-hydroxy-3-methyl-phenyl)-2-(2,4,6-trimethylphenoxy)pyridine-3-carboxamide], the EC30 entry under setting [1] was “+++ (“+++” means <3 uM)”.

Turning to `Cc1cccc(-c2ccc(C(=O)NS(=O)(=O)c3cccc(N)n3)c(Oc3c(C)cc(C)cc3C)n2)c1` [Compound 672, N-[(6-amino-2-pyridyl)sulfonyl]-6-(m-tolyl)-2-(2,4,6-trimethylphenoxy)pyridine-3-carboxamide], the concentration for an effect of 30% (EC30) entry under setting [1] is on record as “+++ (“+++” means <3 uM)”.

For `Cc1cc(C)c(Oc2nc(C(C)(C)C)ccc2C(=O)NS(=O)(=O)c2cccc(N)n2)c(C#N)c1` [Compound 767, N-[(6-amino-2-pyridyl)sulfonyl]-6-tert-butyl-2-(2-cyano-4,6-dimethyl-phenoxy)pyridine-3-carboxamide], under setting [1], the EC30 result is reported as “+++ (“+++” means <3 uM)”.

As for `COc1cc(-c2ccc(C(=O)NS(=O)(=O)c3ccc[nH]c3=O)c(N3C[C@@H](C)CC3(C)C)n2)ccc1C` [Compound 2440, 6-(3-methoxy-4-methyl-phenyl)-N-[(2-oxo-1H-pyridin-3-yl)sulfonyl]-2-[(4S)-2,2,4-trimethylpyrrolidin-1-yl]pyridine-3-carboxamide], under setting [2], the EC30 was under 3 µM.

For `Cc1ccc(-c2ccc(C(=O)NS(=O)(=O)c3ccc[nH]c3=O)c(N3C[C@@H](C)CC3(C)C)n2)c(O)c1` [Compound 2148, 6-(2-hydroxy-4-methyl-phenyl)-N-[(2-oxo-1H-pyridin-3-yl)sulfonyl]-2-[(4S)-2,2,4-trimethylpyrrolidin-1-yl]pyridine-3-carboxamide], under setting [2], the EC30 was 3 to 10 µM.

With `C[C@@H]1CN(c2nc(-c3cccc4[nH]ccc34)ccc2C(=O)NS(=O)(=O)c2cccnc2N)C(C)(C)C1` [Compound 2478, N-[(2-amino-3-pyridyl)sulfonyl]-6-(1H-indol-4-yl)-2-[(4S)-2,2,4-trimethylpyrrolidin-1-yl]pyridine-3-carboxamide], the EC30 under setting [2] is under 3 µM.

Take `C[C@@H]1CN(c2nc(-c3ccc(O[C@@H](C)CO)nc3)ccc2C(=O)NS(=O)(=O)c2cccnc2N)C(C)(C)C1` [Compound 2687]: the EC30 under setting [2] fell in the range of 3 to 10 µM.

As for `Cc1cc(F)cc(-c2ccc(C(=O)NS(=O)(=O)c3ccc[nH]c3=O)c(N3C[C@@H](C)CC3(C)C)n2)c1` [Compound 2348, 6-(3-fluoro-5-methyl-phenyl)-N-[(2-oxo-1H-pyridin-3-yl)sulfonyl]-2-[(4S)-2,2,4-trimethylpyrrolidin-1-yl]pyridine-3-carboxamide], the EC30 under setting [2] was under 3 µM.
